Results taken from patent US8168568B1, “Combinatorial therapy for protein signaling diseases” (The United States of America, as represented by the …, priority 2003, dated 2012).

Key:
Type in all cases: cell-based, human
EGFR = EGFR activation time course by reverse phase protein array; conditions: for EGFR receptor phosphorylation: time course experiments, 100 ng/ml EGF, 10 μM PGE2, or 25 ng/ml TGF-α
Method: For the time course assays, colon cancer cells were plated in 24-well plates (1×10e5 cells/well), grown to 80% confluency, and serum-starved for 24 hours. […] Unstimulated cells were used as a control for basal activity. To assess TGF-inhibition, cells were pretreated with 100 ng/ml neutralizing TGF-α antibody for 1 hour before stimulation. […] To harvest cells at each timepoint, a number of cells were removed from wells by gentle scraping and suspended in 100 μL of heated SDS sample buffer (50% Tissue Protein Extraction Reagent, 48% 2× Tris-Glycine SDS Sample Buffer and 2% β-Mercaptoethanol) containing 10 μL of protease inhibitor cocktail per ml of lysate. Cells were immediately transferred to a chilled tube.
The reverse-phase protein array were as previously described (Paweletz et al). Briefly, cell lysates were subjected to one freeze/thaw cycle followed by vigorous vortexing to ensure complete liberation of proteins from the cytosol and the cell membrane. Immediately prior to spotting onto nitrocellulose slides, the samples were boiled for 5 minutes to ensure complete denaturation. Samples were spun at high speed in a microcentrifuge to remove any remaining cellular debris. Nanoliter amounts of the samples were arrayed onto nitrocellulose coated slides (Schleicher and Schuell Bioscience Inc., Keene, N.H.). Each sample was spotted nine times to form a “square” pattern consisting of three dilutions, left to right (neat, 1:2, 1:4), and three replicates of each dilution, top to bottom. Sample buffer alone was spotted as a negative control.
Slides were prepared for signal development by incubating for 10 minutes in a 10% solution of Mild Re-Blot Plus (Chemicon Intl, Temecula, Calif.) to expose antigenic sites embedded in the nitrocellulose. This was followed by two 5-minute washes in PBS and incubation in a casein-based blocking solution (Applied Biosystems, Foster City, Calif.) for at least 1 hour. Signal was developed using an automated staining system based on avidin/biotin and peroxidase methodologies (DakoCytomation, Carpinteria, Calif.). Staining is completed by a 5-minute incubation with 3,3′diaminobenzidine tetrahydrochloride (DAB) which results in a brown-colored precipitate at the antigen site. After signal development, slides were scanned on an Epson flatbed scanner at 1200 dpi. Scanned images (saved as an inverted grayscale TIFF file in Adobe Photoshop version 5.5) were analyzed with ImageQuant version 5.2 software (Molecular Dynamics, Amersham, UK). The spot intensity after background correction was proportional to the concentration of the target protein. […]
Activation is expressed as the relative intensity of stimulated cells compared with unstimulated cells on reverse phase protein microarray. […]

EGFr signaling pathway = assay: Reverse phase protein microarray of EGFr pathway nodes in EGF-stimulated colon cancer cells treated with kinase inhibitors; conditions: CCL-250 cells, drug treatment 30 minutes, then EGF 0.1 μg/mL; FIG. 6A
Method: The epidermal growth factor receptor (EGFr) signaling pathway, which is a well-characterized pathway where interdependence is already known, was investigated. […]. […] In these experiments, colon cancer cells, ATCC CCL-250, which over-express EGFr 25-75% of the time, were cultured. […] Impact of drug compounds on the pathway was evaluated by treating the cells with a drug compound or a combination of drug compounds for 30 minutes. […] Cells were then scraped from the bottom surface of the wells using a pipet tip and placed into mini-centrifuge tubes. The lysates were then vortexed, boiled for 5 minutes, and centrifuged for 20 minutes at 14,000 rpm. The lysates were arrayed using the reverse phase microarray techniques described in Paweletz et al. […] In contrast to forward-phase protein arrays that immobilize the probe, the reverse phase protein array immobilizes the whole repertoire of patient proteins (e.g. by a nitrocellulose substrate) that represent the state of individual tissue cell populations. Probes are then applied to the immobilized proteins. […] The phospho-antibodies bind to the phosphorylated, or activated, form of the protein. The other antibody binds to and is used to determine the total amount of the protein in the sample. Using the values from these two antibodies, the relative activation of that proteins may be calculated as the ratio of phosphorylated protein to total protein.

[1] = tested on: c-erbB1, MEK, and ERK kinases; assay: Kinase substrate array time course with and without MEK inhibitor; conditions: CCL250, 10 uM pretreatment 1 hour, 100 ng/ml EGF; FIG. 18B
Method: Separate aliquots at a series of EGF post treatment time intervals were taken and cell lysates were prepared for kinase substrate array analysis.
To determine if this technology can capture the time-course of linked kinase network events, a series of known connected phosphorylation substrates were analyzed: epidermal growth factor receptor (c-erbB1), MEK, and ERK kinases using a colon cancer cell line (CCL250) with over-expressed c-erbB1 receptor levels. […] When these events are analyzed by reverse phase array, both ERK and MEK phosphorylation show a coordinately linked kinetic profile which is expected since ERK is a direct substrate of MEK kinase (FIG. 18A). […] Phosphorylation of kinase substrates is a transient event, as phosphatases promptly dephosphorylate the substrate as the cascade continues.

COX-2 protein = COX-2 protein expression by reverse phase protein array and Western blot; conditions: colon cancer cells, every 24 hours over 72 hours; data not shown
Method: Lysates that were analyzed by Western blot were evaluated for protein concentration with the BCA Protein Assay Kit (Pierce, Rockford, Ill.). Details of Western analyses are well known. Briefly, equal amounts of proteins were fractionated on 4-20% SDS-PAGE gels and transferred to PVDF membranes. After sequential incubations with primary antibodies and peroxidase-conjugated goat anti-rabbit antibodies (Tropix, Bedford, Mass.), signal was developed using an enhanced chemiluminescent staining system (Tropix, Bedford, Mass.). Protein loading was normalized for phospho- and nonphospho-proteins with the total self-protein and β-actin, respectively.
Protein loading was controlled for by expressing COX-2 protein relative to β-actin.

[2] = tested on: EGF stimulated ATCC CCL-250 cancer cells; assay: 10 day colony growth bioassay; conditions: EGF stimulated CCL-250, FIG. 9

Row | EGFR receptor phosphorylation (EGFR) | Molecule | shunting via the CREB node (relative expression of CREB) (EGFr signaling pathway) | also measured
1 | can be induced | EGF: recombinant epidermal growth factor, EGFR ligand used as stimulus |  | 
2 | can be induced | TGF-alpha: EGFR ligand used as stimulus |  | 

Continued, molecule first:

Row | Molecule | EGFR receptor phosphorylation (EGFR) | shunting via the CREB node (relative expression of CREB) (EGFr signaling pathway) | also measured
3 | COc1cccc(-c2cc(=O)c3ccccc3o2)c1N [PD98059, 2-(2′-amino-3′-methoxyphenyl)-oxanaphthalen-4-one] |  | causes shunting through this node | activation of ERK (EGFr signaling pathway): diminishing the activation of the next node along the pathway, ERK; phosphorylation of c-erbB1, MEK and ERK after EGF [1]: only ERK phosphorylation was effected
4 | CCCCC[C@H](O)/C=C/[C@H]1[C@H](O)CC(=O)[C@@H]1C/C=C\CCCC(=O)O [PGE2, prostaglandin E2] | can be induced |  | EGFR activation with or without TGF-α inhibitor pretreatment (EGFR; harvested at 5 minutes, 100 ng/ml neutralizing TGF-α antibody 1 hour, FIG. 11): requirement of TGF-α for the activation of EGFR by PGE2; expression of COX-2 protein relative to β-actin (COX-2 protein): induced increased expression of COX-2 protein
5 | COc1cc2ncnc(Nc3cccc(Cl)c3)c2cc1OC [AG1478, 4-(3-chloroanilino)-6,7-dimethoxyquinazoline] |  | not seen | 
6 | NC(=O)c1nnn(Cc2cc(Cl)c(C(=O)c3ccc(Cl)cc3)c(Cl)c2)c1N [CAI, carboxyamidotriazole] |  |  | inhibition of cell proliferation [2]: no significant-growth inhibition
